According to patent publication US20160287524A1, “PHARMACEUTICAL COMPOSITIONS COMPRISING AN ACTIVE AGENT” (GALENICUM HEALTH S.L., priority 2013, published 2016):

Test: Dissolving the active agent in the capsule fill (glycerol monocaprylocaprate, BHT)
Type: physicochemical
Details: 20-23° C., stirred
Text: Another advantage of the process as herein disclosed is that it is highly reproducible and robust independently of the water content of the active agent. […] However, when the active agent has a water content higher than 0.05% measured by Karl Fischer titration, the components of the fill are completely dissolved at the same range of temperatures. Furthermore, the inventors have been able to establish an optimum range of working temperatures able to obtain a fill solution completely dissolved homogeneously with active agents with a water content higher than 0.05% w/w.
• Glycerol monocaprylocaprate was added to a stainless steel tank equipped with cooling jacket to keep it at a temperature of 20-23° C. It was stirred until completely dissolved. • Butylhydroxytoluene (BHT) was added to the tank and stirred until completely dissolved. • Finally dutasteride anhydrous was added to the tank. • The resulting solution was kept at a range of temperature of 20-23° C. […] Water content of the active agent and the range of temperatures were studied to avoid dissolution problems.

C[C@]12C=CC(=O)N[C@@H]1CC[C@@H]1[C@@H]2CC[C@]2(C)[C@@H](C(=O)Nc3cc(C(F)(F)F)ccc3C(F)(F)F)CC[C@@H]12 [dutasteride anhydrous]
dissolution of active agent in the fill solution: not possible to obtain a completely dissolved solution
